Measurements taken from patent EP0463492A1, “2,6-Diarylpyridin derivatives” (BAYER AG, priority 1990, dated 1992).

System: Testpflanzen
Assay: Post-emergence test (greenhouse)
Type: in vivo
Settings: post-emergence spray on test plants 5 - 15 cm high, 1000 l Wasser/ha; rated after three weeks as % Schädigung versus untreated control (0 % = keine Wirkung, 100 % = totale Vernichtung); application rates and plant species not given
Source text: Post-emergence-Test (Gewächshaus) • Lösungsmittel: 5 Gewichtsteile Aceton • Emulgator: 1 Gewichtsteil Alkylarylpolyglykolether
Zur Herstellung einer zweckmäßigen Wirkstoffzubereitung vermischt man 1 Gewichtsteil Wirkstoff mit den angegebenen Menge Lösungsmittel, gibt die angegebene Menge Emulgator zu und verdünnt das Konzentrat mit Wasser auf die gewünschte Konzentration.
Mit der Wirkstoffzubereitung spritzt man Testpflanzen, welche eine Höhe von 5 - 15 cm haben so, daß die jeweils gewünschten Wirkstoffmengen pro Flächeneinheit ausgebracht werden. Die Konzentration der Spritzbrühe wird so gewählt, daß in 1000 I Wasser/ha die jeweils gewünschten Wirkstoffmengen ausgebracht werden. Nach drei Wochen wird der Schädigungsgrad der Pflanzen bonitiert in % Schädigung im Vergleich zur Entwicklung der unbehandelten Kontrolle.
Es bedeuten: • 0 % = keine Wirkung (wie unbehandelte Kontrolle) • 100 % = totale Vernichtung

SMILES: CCOc1cc(-c2ccccc2)nc(-c2cccc(CC)c2)c1 [Beispiel 2, 4-Ethoxy-2-(3-ethylphenyl)-6-phenyl-pyridin]
- Wirksamkeit und Nutzpflanzenselektivität: sehr gute Wirksamkeit und Nutzpflanzenselektivität
